# Measurements from DBAASP.
# Several values for one entry are separate records, joined by “and”; a condition that tells them apart may be missing. Equal entries are not always repeated.
# Legend:
# Experiment in all cases: ≥ marks a high value that may be exact or a test limit, other limits are often not marked, values filed in µg/mL are converted to µM
# [1] = test system: Streptococcus sanguinis
# [2] = test system: Staphylococcus aureus
# [3] = test system: Microsporum canis
# [4] = test system: Staphylococcus cohnii MW767053
# [5] = test system: Staphylococcus haemolyticus
# [6] = test system: Staphylococcus pseudintermedius
# [7] = test system: Pseudomonas aeruginosa ATCC 27853
# [8] = test system: Proteus mirabilis
# [9] = test system: Staphylococcus aureus ATCC 43300
# [10] = test system: Staphylococcus aureus NCTC 12493
# [11] = test system: Staphylococcus aureus NCTC 10788
# [12] = test system: Escherichia coli NCTC 10418
# [13] = test system: Staphylococcus sciuri
# [14] = test system: Staphylococcus simulans
# [15] = test system: Trichophyton mentagrophytes
# [16] = test system: Staphylococcus pseudintermedius MW767056
# [17] = test system: Microsporum canis MW768151
# [18] = test system: Pseudomonas aeruginosa 1
# [19] = test system: Escherichia coli 1
# [20] = test system: Pseudomonas aeruginosa
# [21] = test system: Escherichia coli
# [22] = test system: Escherichia coli 1057
# [23] = test system: Enterococcus faecalis ATCC 29212
# [24] = test system: Escherichia coli BL21(DE3)
# [25] = test system: Escherichia coli 214
# [26] = test system: Escherichia coli C600
# [27] = test system: Escherichia coli CIP 54.8T
# [28] = test system: Bacillus megaterium CIP 51.17
# [29] = test system: Micrococcus luteus ATCC 49732
# [30] = test system: Staphylococcus aureus ATCC 12600
# [31] = test system: Escherichia coli ATCC 11775
# [32] = test system: Candida albicans ATCC 14053
smiles,measurement,setting,value
NC(=O)[C@H](Cc1ccccc1)NC(=O)[C@H](Cc1ccccc1)NC(=O)[C@H](Cc1ccccc1)NC(=O)[C@H](Cc1ccccc1)NC(=O)[C@H](Cc1ccccc1)NC(=O)[C@H](Cc1ccccc1)NC(=O)[C@H](Cc1ccccc1)NC(=O)[C@@H](N)Cc1ccccc1 [FFFFFFFF],MIC,[1],7.1 µM
same,MIC,[2],5.8 µM
CC[C@H](C)[C@H](NC(=O)CNC(=O)[C@H](CO)NC(=O)[C@H](CC(C)C)NC(=O)[C@H](CC(C)C)NC(=O)CN)C(=O)N[C@@H](CC(C)C)C(=O)NCC(=O)N[C@@H](C)C(=O)NCC(=O)N[C@@H](CCCCN)C(=O)N[C@@H](CCCCN)C(=O)N[C@H](C(=O)N[C@H](C(=O)N[C@@H](Cc1ccccc1)C(N)=O)C(C)C)[C@@H](C)CC [GLLSGILGAGKKIVF],MIC,[3],1.92 µM
same,MIC,[4],≥ 86.9 µM
same,MIC,[5],≥ 43.5 µM
same,MIC,[6],≥ 61.5 µM
same,MIC,[7],2 µM
same,MIC,[8],≥ 43.5 µM
same,MIC,[9],0.998 µM
same,MIC,[10],4 µM
same,MIC,[11],2 µM
same,MIC,[2],0.998 µM
same,MIC,[12],7.99 µM
same,MIC,[13],≥ 174 µM
same,MIC,[14],10.9 µM
same,MIC,[15],1.36 µM
same,MIC,[16],≥ 174 µM
same,MIC,[17],0.679 µM
CC[C@H](C)[C@H](NC(=O)[C@@H](NC(=O)[C@@H]1CCCN1C(=O)[C@H](CO)NC(=O)[C@@H]1CSSC[C@H](NC(=O)[C@H](CCCCN)NC(=O)[C@H](CCCCN)NC(=O)CNC(=O)CNC(=O)CNC(=O)CN)C(=O)N[C@@H](CCCCN)C(=O)N[C@@H](CCCCN)C(=O)N[C@@H](CC(C)C)C(=O)N[C@@H](Cc2ccccc2)C(=O)N[C@@H](CCCCN)C(=O)N[C@@H](CCCCN)C(=O)N1)C(C)C)C(=O)N1CCC[C@H]1C(=O)N[C@@H](CC(C)C)C(=O)N[C@@H](CC(C)C)C(=O)N[C@@H](Cc1cnc[nH]1)C(=O)N[C@@H](CC(C)C)C(=O)NCC(=O)O [GGGGKKCKKLFKKCSPVIPLLHLG],MIC,[18],27 µM
same,MIC,[19],2.7 µM
same,MIC,[20],16 µM
same,MIC,[21],1.3 µM
CC(C)C[C@H](NC(=O)[C@H](CCCN=C(N)N)NC(=O)[C@@H](N)CCCN=C(N)N)C(=O)N[C@@H](CCCN=C(N)N)C(=O)N1CCC[C@H]1C(=O)N[C@@H](CCCN=C(N)N)C(=O)N[C@@H](CCCN=C(N)N)C(=O)N1CCC[C@H]1C(=O)N[C@@H](CCCN=C(N)N)C(=O)N[C@@H](CC(C)C)C(=O)N1CCC[C@H]1C(=O)N[C@@H](CCCN=C(N)N)C(=O)N1CCC[C@H]1C(=O)N[C@@H](CCCN=C(N)N)C(=O)N1CCC[C@H]1C(=O)N[C@@H](CCCN=C(N)N)C(=O)N1CCC[C@H]1C(=O)N[C@@H](CCCN=C(N)N)C(=O)N1CCC[C@H]1C(=O)N[C@@H](CCCN=C(N)N)C(=O)N1CCC[C@H]1C(=O)N[C@@H](CCCN=C(N)N)C(=O)O [RRLRPRRPRLPRPRPRPRPRPR],MIC,[22],10 µM and 8 µM
same,MIC,[23],> 32 µM
same,MIC,[24],8 µM
same,MIC,[25],≥ 64 µM
same,MIC,[26],2 µM and 4 µM
CC[C@H](C)[C@H](NC(=O)[C@H](CCCN=C(N)N)NC(=O)[C@H](CC(N)=O)NC(=O)[C@H](CC(C)C)NC(=O)[C@H](Cc1ccccc1)NC(=O)[C@H](CCCN=C(N)N)NC(=O)[C@H](Cc1ccccc1)NC(=O)[C@H](CCCN=C(N)N)NC(=O)[C@@H](NC(=O)[C@H](CC(C)C)NC(=O)[C@@H](NC(=O)[C@@H](N)C(C)C)[C@@H](C)CC)[C@@H](C)O)C(=O)N[C@H](C(=O)N[C@@H](CCC(=O)O)C(=O)N1CCC[C@H]1C(=O)N[C@@H](CC(C)C)C(=O)N[C@@H](CC(C)C)C(=O)N[C@@H](CCCCN)C(=O)N[C@@H](CCCCN)C(=O)N[C@@H](C)C(=O)O)C(C)C [VILTRFRFLNRIVEPLLKKA],MIC,[27],≥ 35.4 µM
same,MIC,[28],≥ 100 µM
CC(C)C[C@H](NC(=O)[C@H](Cc1cnc[nH]1)NC(=O)[C@@H](N)C(C)C)C(=O)N1CCC[C@H]1C(=O)N1CCC[C@H]1C(=O)O [VHLPP],MIC,[29],≥ 479 µM
same,MIC,[30],≥ 479 µM
same,MIC,[31],≥ 479 µM
same,MIC,[32],≥ 479 µM
